# Reference: PMC10955468 (Frontiers in Pharmacology, 2024)
# Key:
# TMEM206 (PAORAC/ASOR) [1] = target: T1, TMEM206 (PAORAC/ASOR) (Homo sapiens, UniProt Q9H813); experiment: whole-cell patch clamp, HCT116; type: cell-based; details: HCT-116; read-out: % residual current at 100 μM
# T1 construct: gene PACC1; native full-length channel in HCT116 cells (whole-cell patch clamp); homo-trimer; current absent in TMEM206 knockout clones
# TMEM206 (PAORAC/ASOR) [2] = target: T1, TMEM206 (PAORAC/ASOR); experiment: whole-cell patch clamp, HCT116; type: cell-based; details: HCT-116, read-out: % inhibition at 100 μM
# T1 sequence (Q9H813 whole entry): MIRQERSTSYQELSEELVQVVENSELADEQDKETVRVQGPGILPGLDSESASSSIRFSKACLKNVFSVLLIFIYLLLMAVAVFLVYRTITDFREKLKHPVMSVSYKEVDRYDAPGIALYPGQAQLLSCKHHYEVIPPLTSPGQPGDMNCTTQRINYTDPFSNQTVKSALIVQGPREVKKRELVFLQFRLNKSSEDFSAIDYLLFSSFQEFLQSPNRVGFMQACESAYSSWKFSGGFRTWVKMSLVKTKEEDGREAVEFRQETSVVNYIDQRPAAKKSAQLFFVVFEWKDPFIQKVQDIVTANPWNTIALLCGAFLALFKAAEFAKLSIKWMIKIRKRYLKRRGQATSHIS
remaining activity at 100 µM (TMEM206 (PAORAC/ASOR) [1]),inhibition at 100 µM (TMEM206 (PAORAC/ASOR) [2]),SMILES
53%,,"Cc1cc(Cl)ccc1OC(C)C(=O)Nc1cc(Cl)ccc1C(=O)O (stereo not drawn) [LBA, 4-chloro-2-(2-(4-chloro-2-methylphenoxy)propanamido)benzoic acid]"
,28%,O=C(O)c1ccccc1Nc1cccc(C(F)(F)F)c1 [flufenamic acid]
38%,,O=C(O)c1cccnc1Nc1cccc(C(F)(F)F)c1 [niflumic acid]
